Data taken from US20250340563A1, “FUSED PYRIDAZINE DERIVATIVES AS NLRP3 INHIBITORS” (Takeda Pharmaceutical Company Limited, priority 2022, published 2025).

Target: NLRP3 inflammasome (Homo sapiens, UniProt Q96P20)
Experiment: IL-1β assay in IFN-γ-differentiated, LPS-primed, ATP-activated THP-1 cells (ELISA)
Format: cell-based
Details: 50 ng/mL LPS priming, 2.5 mM ATP activation, 2 hours
Experimental: Monocytic THP-1 cells (ATCC: TIB-202) are maintained in accordance with the provider's instructions in RPMI media (Life Technologies, Cat #A10491-01); RPMI is supplemented with 10% heat inactivated fetal bovine serum (Hyclone Cat #SH30396.03). The cells are differentiated into macrophages by the addition of 25 ng/mL IFN-7 (PeproTech, Cat #300-02-100UG) for 24 hours at 37° C./5% CO2. Media is exchanged with fresh media with no FBS, and the cells are treated with 50 ng/mL LPS (priming step) for 24 hours at 37° C./5% CO2 (LPS-EK: Invivogen, Cat #tlrl-peklps). Media is exchanged with fresh media with no FBS. The cells are plated at 40,000 cells per well in 384-well flat-bottom cell culture plates (Costar 3764) containing compounds (added in 1:1000) in a 1:3.16 serial dilution series in DMSO and are incubated for 30 minutes at 37° C./5% CO2. The NLRP3 inflammasome is activated with the addition of 2.5 mM ATP (Sigma Cat #A3377) and the cells are incubated for 2 hours at 37° C./5% CO2. At the end of the incubation period, 40 μL supernatant is removed, and […] are monitored using an ELISA (Human […], R&D systems, Cat #DY201) in accordance with the manufacturer's instructions.
The IC50 values are calculated from a plot of percentage of inhibition versus the inhibitor concentration by a logistics curve fit according to: Y=[Bottom+(Top−Bottom)]/(1+10^[(Log IC50−X)·Hill Slope], where Y is the % inhibition at the inhibitor concentration, X, “Bottom” is the lowest inhibition value, i.e. 0%, “Top” is the maximum inhibition value, i.e. 100%, and the “Hill Slope” describes the slope of the sigmoidal curve between the “Bottom” and “Top” values. The curve fitting was conducted with internally developed software.

Chain of NLRP3 inflammasome (Q96P20 whole entry): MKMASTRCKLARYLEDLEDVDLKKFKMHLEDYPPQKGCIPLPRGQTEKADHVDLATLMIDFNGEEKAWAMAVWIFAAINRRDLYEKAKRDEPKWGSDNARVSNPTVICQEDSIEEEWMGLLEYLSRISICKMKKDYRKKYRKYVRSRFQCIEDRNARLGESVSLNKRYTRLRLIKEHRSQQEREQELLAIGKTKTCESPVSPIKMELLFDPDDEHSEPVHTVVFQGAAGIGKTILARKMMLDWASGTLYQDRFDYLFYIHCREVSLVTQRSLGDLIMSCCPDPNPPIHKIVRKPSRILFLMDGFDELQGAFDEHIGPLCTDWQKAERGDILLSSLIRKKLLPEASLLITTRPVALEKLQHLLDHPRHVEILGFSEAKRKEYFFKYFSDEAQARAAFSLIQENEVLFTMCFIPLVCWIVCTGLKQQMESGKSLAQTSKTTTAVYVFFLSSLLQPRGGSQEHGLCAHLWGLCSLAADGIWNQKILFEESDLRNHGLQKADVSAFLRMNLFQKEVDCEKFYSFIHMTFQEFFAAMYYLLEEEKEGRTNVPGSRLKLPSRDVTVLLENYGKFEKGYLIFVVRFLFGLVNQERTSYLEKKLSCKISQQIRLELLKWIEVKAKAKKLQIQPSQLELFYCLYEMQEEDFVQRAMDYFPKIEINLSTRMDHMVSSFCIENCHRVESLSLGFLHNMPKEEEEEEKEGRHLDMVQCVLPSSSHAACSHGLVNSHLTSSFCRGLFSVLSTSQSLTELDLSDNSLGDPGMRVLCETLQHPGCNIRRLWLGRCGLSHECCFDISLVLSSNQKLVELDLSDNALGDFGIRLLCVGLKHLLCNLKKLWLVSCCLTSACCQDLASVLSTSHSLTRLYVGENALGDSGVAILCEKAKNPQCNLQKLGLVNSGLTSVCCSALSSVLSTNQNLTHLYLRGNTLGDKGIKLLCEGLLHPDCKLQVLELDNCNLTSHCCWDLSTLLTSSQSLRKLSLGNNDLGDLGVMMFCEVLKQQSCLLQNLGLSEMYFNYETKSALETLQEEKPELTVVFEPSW

| SMILES | IC50 |
| --- | --- |
| COc1ccc(-c2nnc(N[C@@H]3C[C@@H](F)CN(C4CC4)C3)c3ccccc23)cc1 [Example 55, N-((3R,5R)-1-cyclopropyl-5-fluoropiperidin-3-yl)-4-(4-methoxyphenyl)phthalazin-1-amine] | 575 nM |
| Cc1cccc(-c2nnc(NC3CCCN(C)C3)c3ccccc23)c1 (stereo not shown) [Example 18, N-(1-methylpiperidin-3-yl)-4-(m-tolyl)phthalazin-1-amine] | 1150 nM |
| CN1CCC[C@@H](Nc2nnc(-c3ccccc3C(F)F)c3ccncc23)C1 [Example 91, (R)-1-(2-(difluoromethyl)phenyl)-N-(1-methylpiperidin-3-yl)pyrido[3,4-d]pyridazin-4-amine] | 307 nM |
| CN1CCc2c(NC3CCCN(C)C3)nnc(-c3ccc(Cl)cc3)c2C1 (stereo not shown) [Example 99, 4-(4-chlorophenyl)-6-methyl-N-(1-methylpiperidin-3-yl)-5,6,7,8-tetrahydropyrido[3,4-d]pyridazin-1-amine] | 2040 nM |
| COc1ccc(-c2nnc(N[C@@H]3CCCN(CCF)C3)c3ccccc23)c(F)c1 [Example 61, (R)-4-(2-fluoro-4-methoxyphenyl)-N-(1-(2-fluoroethyl)piperidin-3-yl)phthalazin-1-amine] | 134 nM |
| CC(=O)N1CCc2c(NC3CCCN(C)C3)nnc(-c3ccc(Cl)cc3)c2C1 (stereo not shown) [Example 104, 1-(4-(4-chlorophenyl)-1-((1-methylpiperidin-3-yl)amino)-7,8-dihydropyrido[3,4-d]pyridazin-6(5H)-yl)ethan-1-one] | 1660 nM |
| FC(F)CN1CCCC(Nc2nnc(-c3ccc(Cl)cc3)c3ccccc23)C1 (stereo not shown) [Example 142, 4-(4-chlorophenyl)-N-(1-(2,2-difluoroethyl)piperidin-3-yl)phthalazin-1-amine] | 195 nM |
| Oc1cccc(Nc2nnc(-c3ccc(C4(C(F)(F)F)CC4)cc3)c3ccccc23)c1 [Example 4, 3-((4-(4-(1-(trifluoromethyl)cyclopropyl)phenyl)phthalazin-1-yl)amino)phenol] | 1410 nM |
| CC1(c2ccc(-c3nnc(Nc4cccc(O)c4)c4ccccc34)cc2)CC1 [Example 3, 3-((4-(4-(1-methylcyclopropyl)phenyl)phthalazin-1-yl)amino)phenol] | 1120 nM |
| CN1CC(Nc2nnc(-c3ccc(Cl)cc3)c3ccccc23)CC(F)(F)C1 (stereo not shown) [Example 108, 4-(4-chlorophenyl)-N-(5,5-difluoro-1-methylpiperidin-3-yl)phthalazin-1-amine] | 3160 nM |
| CN1CCCC(Nc2nnc(-c3ccc(Cl)cc3)c3cnccc23)C1 (stereo not shown) [Example 62, 4-(4-chlorophenyl)-N-(1-methylpiperidin-3-yl)pyrido[3,4-d]pyridazin-1-amine] | 3550 nM |
| CC(=O)N1CCCC(Nc2nnc(-c3ccc(Cl)cc3)c3ccccc23)C1 (stereo not shown) [Example 110, 1-(3-((4-(4-chlorophenyl)phthalazin-1-yl)amino)piperidin-1-yl)ethan-1-one] | 4480 nM |
| CN1CCc2c(-c3ccc(Cl)cc3)nnc(NC3CCCN(C)C3)c2C1 (stereo not shown) [Example 101, 1-(4-chlorophenyl)-6-methyl-N-(1-methylpiperidin-3-yl)-5,6,7,8-tetrahydropyrido[3,4-d]pyridazin-4-amine] | 804 nM |
| CCN1CCCC1CNc1nnc(-c2ccc(OC)cc2)c2ccccc12 (stereo not shown) [Example 125, N-((1-ethylpyrrolidin-2-yl)methyl)-4-(4-methoxyphenyl)phthalazin-1-amine] | 2750 nM |
| CN1CCCC(Nc2nnc(-c3ccccc3Cl)c3ccccc23)C1 (stereo not shown) [Example 14, 4-(2-chlorophenyl)-N-(1-methylpiperidin-3-yl)phthalazin-1-amine] | 2950 nM |
| CN1CCC[C@@H](Nc2nnc(-c3ccc(O)cc3)c3ccncc23)C1 [Example 23, (R)-4-(4-((1-methylpiperidin-3-yl)amino)pyrido[3,4-d]pyridazin-1-yl)phenol] | 10000 nM |
| COc1ccc(-c2nnc(N(C)C3CCCN(C)C3)c3ccccc23)cc1 (stereo not shown) [Example 45, 4-(4-methoxyphenyl)-N-methyl-N-(1-methylpiperidin-3-yl)phthalazin-1-amine] | 4120 nM |

Results, then the molecule that gave them:

| IC50 | SMILES |
| --- | --- |
| 136 nM | COc1ccc(-c2nnc(N[C@@H]3C[C@@H](F)CN(C)C3)c3cnccc23)c(F)c1 [Example 180, N-((3R,5R)-5-fluoro-1-methylpiperidin-3-yl)-1-(2-fluoro-4-methoxyphenyl)pyrido[3,4-d]pyridazin-4-amine] |
| 56 nM | Clc1ccc(-c2nnc(NC3CCCN(C4CCCC4)C3)c3ccccc23)cc1 (stereo not shown) [Example 146, 4-(4-chlorophenyl)-N-(1-cyclopentylpiperidin-3-yl)phthalazin-1-amine] |
| 1110 nM | CC1(O)CCCC(Nc2nnc(-c3ccc(Cl)cc3)c3ccccc23)C1 (stereo not shown) [Example 138, 3-((4-(4-chlorophenyl)phthalazin-1-yl)amino)-1-methylcyclohexan-1-ol] |
| 4570 nM | COC1(C)CC(Nc2nnc(-c3ccc(Cl)cc3)c3ccccc23)C1(C)C (stereo not shown) [Example 135, 4-(4-chlorophenyl)-N-(3-methoxy-2,2,3-trimethylcyclobutyl)phthalazin-1-amine] |
| 589 nM | CN1C[C@H](F)C[C@@H](Nc2nnc(-c3ccc(Cl)cc3F)c3cnccc23)C1 [Example 183, 4-(4-chloro-2-fluorophenyl)-N-((3R,5R)-5-fluoro-1-methylpiperidin-3-yl)pyrido[3,4-d]pyridazin-1-amine] |
| 3720 nM | CC12CCC(Nc3nnc(-c4ccc(Cl)cc4)c4ccccc34)(CO1)C2 (stereo not shown) [Example 136, 4-(4-chlorophenyl)-N-(1-methyl-2-oxabicyclo[2.2.1]heptan-4-yl)phthalazin-1-amine] |
| 1000 nM | COc1cc(F)ccc1-c1nnc(N[C@@H]2C[C@@H](F)CN(C)C2)c2cnccc12 [Example 181, N-((3R,5R)-5-fluoro-1-methylpiperidin-3-yl)-1-(4-fluoro-2-methoxyphenyl)pyrido[3,4-d]pyridazin-4-amine] |
| 3890 nM | COc1ccc(-c2nnc(NCC3CCCCN3C)c3ccccc23)cc1 (stereo not shown) [Example 130, 4-(4-methoxyphenyl)-N-((1-methylpiperidin-2-yl)methyl)phthalazin-1-amine] |
| 325 nM | COc1ccc(-c2nnc(NC3CCCN(C)C3)c3cnn(C)c23)cc1 (stereo not shown) [Example 150, 7-(4-methoxyphenyl)-1-methyl-N-(1-methylpiperidin-3-yl)-1H-pyrazolo[3,4-d]pyridazin-4-amine] |
| 2570 nM | COc1ccc(-c2nnc(NC3CCN(C)C3)c3ccccc23)cc1 (stereo not shown) [Example 126, 4-(4-methoxyphenyl)-N-(1-methylpyrrolidin-3-yl)phthalazin-1-amine] |
| 468 nM | OC1CC2(C1)CC(Nc1nnc(-c3ccc(Cl)cc3)c3ccccc13)C2 (stereo not shown) [Example 133, 6-((4-(4-chlorophenyl)phthalazin-1-yl)amino)spiro[3.3]heptan-2-ol] |
| 21 nM | CN1CCC[C@@H](Nc2nnc(-c3ccccc3O)c3c2CCOC3)C1 [Example 227, (R)-2-(1-((1-methylpiperidin-3-yl)amino)-7,8-dihydro-5H-pyrano[3,4-d]pyridazin-4-yl)phenol] |
| 2290 nM | CO[C@H]1C[C@@H](Nc2nnc(-c3ccc(Cl)cc3)c3ccccc23)C1 [Example 134, 4-(4-chlorophenyl)-N-(cis-3-methoxycyclobutyl)phthalazin-1-amine] |
| 3310 nM | CN(C)C1CC(Nc2nnc(-c3ccc(Cl)cc3)c3ccccc23)C1 (stereo not shown) [Example 149, Ni-(4-(4-chlorophenyl)phthalazin-1-yl)-N^3,N^3-dimethylcyclobutane-1,3-diamine] |
| 269 nM | COc1ccc(-c2nnc(NC3CCCN(CCF)C3)c3ccccc23)cc1 (stereo not shown) [Example 141, N-(1-(2-fluoroethyl)piperidin-3-yl)-4-(4-methoxyphenyl)phthalazin-1-amine] |
| 1050 nM | CS(=O)(=O)N1CCCC(Nc2nnc(-c3ccc(Cl)cc3)c3ccccc23)C1 (stereo not shown) [Example 148, 4-(4-chlorophenyl)-N-(1-(methylsulfonyl)piperidin-3-yl)phthalazin-1-amine] |
| 3020 nM | Clc1ccc(-c2nnc(NC3CCN(Cc4ccccc4)CC3)c3ccccc23)cc1 [Example 163, N-(1-benzylpiperidin-4-yl)-4-(4-chlorophenyl)phthalazin-1-amine] |
| 3020 nM | CN1CC2CCCC(C1)C2Nc1nnc(-c2ccc(Cl)cc2)c2ccccc12 (stereo not shown) [Example 151, 4-(4-chlorophenyl)-N-(3-methyl-3-azabicyclo[3.3.1]nonan-9-yl)phthalazin-1-amine] |
| 23 nM | COc1ccc(-c2nnc(N[C@@H]3CCCN(C4CC4)C3)c3c2CCOC3)cc1 [Example 228, (R)—N-(1-cyclopropylpiperidin-3-yl)-1-(4-methoxyphenyl)-7,8-dihydro-5H-pyrano[3,4-d]pyridazin-4-amine] |
| 210 nM | CN1C[C@H](F)C[C@@H](Nc2nnc(-c3ccccc3O)c3c2CCOC3)C1 [Example 202, 2-(1-(((3R,5R)-5-fluoro-1-methylpiperidin-3-yl)amino)-7,8-dihydro-5H-pyrano[3,4-d]pyridazin-4-yl)phenol] |
